In this data set the test system is APOE4 HF-C mice. Description: Electroretinogram (ERG) in aged APOE4 mice on high fat/cholesterol diet (murine AMD model). The note with it: aged male APOE4 mice, high cholesterol diet 8 weeks, scyllo-inositol 10 mg/ml in drinking water ad libitum. Format: in vivo, mouse. The text has this:
The ocular pathologies of AMD may be recapitulated in a murine model by applying three physiologically relevant risk factors: specific APOE genotype (APOE4), advanced age and high fat/cholesterol-rich (HF-C) diet. These mice develop sub-retinal pigment epithelium (RPE) deposits (basal deposits), RPE atrophy and choroidal neovascularization in a temporal, non-fully penetrant manner that is analogous to human AMD progression [Malek, G., et al., (2005), Proc Natl Acad Sci USA 102, 11900-5]. An electrophysiological phenotype is associated with this pathology. […] The ability of scyllo-inositol (AZD-103/ELN005) to prevent retina/RPE damage, the buildup of basal deposits and attenuation of the ERG was evaluated.
Aged male APOE4 mice housed conventionally, under ambient conditions maintained on water ad libitum and normal mouse chow (normal diet or ND), were assigned to three treatment groups. This assignment was random, although the ages of the animals were balanced across the groups. One group was maintained on the normal diet. The second group was switched to a high fat cholesterol (HFC) diet (35% fat, 20% protein, 45% carbohydrates, 1.25% cholesterol, 0.5% sodium cholate) for 8 weeks. The third group received scyllo-inositol (AZD-103/ELN005) ad libitum (dissolved in drinking water at 10 mg/ml) for 7 days. They were then switched to the HF-C diet for 8 weeks, during which time they continued to receive scyllo-inositol (AZD-103/ELN005) ad libitum. […] ERG tracings were recorded using a platinum iridium wire loop electrode placed in contact with the eye along with a drop of 2.5% hydroxypropyl methylcellulose. […] The a-wave amplitude was measured from baseline to the a-wave trough, and the b-wave amplitude was measured from the a-wave trough to the b-wave peak. • 4. […] Quantitation of photoreceptors. […] The thickness of outer nuclear layer and the linear density of photoreceptor will be calculated. […]
After 8 weeks, animals were assessed by electroretinogram. […] The electrophysiological response to these flashes was recorded by an electrode touching the surface of the eye. […]

One substance from patent publication US20100093648A1, “TREATMENT OF MACULAR DEGENERATION-RELATED DISORDERS” (priority 2008, published 2010) can be followed below.

Take “scyllo-inositol [scyllo-inositol (AZD-103/ELN005)]”: the “a-wave amplitude (ERG)” value is “consistent” and the “retinal function as demonstrated by ERGs” value is “prevented the retinal defect that was caused by high cholesterol diet”. Where the note is “all flash intensities, compared with normal diet controls”, the “scotopic b-wave amplitude (ERG)” value is “virtually indistinguishable from the normal diet control animals”.
